Consider two compounds from patent publication US7329644B2, “Preparation and use of cyclic and branched peptides and their labelled derivatives as therapeutic agents, cholecystokinin agonists or antagonists, and diagnostic agents to identify and locate tumours” (Bracco Imaging S.p.A., priority 2001, dated 2008).

In general, pKd refers to the Kd on a negative log10 scale, so that one unit is a factor of ten.

pKd: −log10 of the molar value. Like-named read-outs stand apart in the source and are kept apart here. Where a SMILES comes first, the peptide text is derived from it. Bridges are numbered along the chain shown (N, C = ends). [ ]: non-standard residue; d: D form. Dap = NC[C@H](N)C(=O)O

Assay [1] deals with T1, fragment 1-47 of type A cholecystokinin receptor, CCKA-R(1-47) (Homo sapiens, UniProt P32238).
T1 construct: Fragment 1-47 of type A receptor, CCKA-R(1-47), and the compound of formula (IV), both synthesised by solid-phase peptide synthesis methods, were used; made in house; host or cells: chemical solid-phase peptide synthesis (no expression host)
T1 sequence (P32238 1-47): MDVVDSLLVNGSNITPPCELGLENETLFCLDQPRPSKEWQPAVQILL
In words: Fluorescence spectroscopy binding to receptor fragment CCKA-R(1-47). An excerpt:
The binding between the compound prepared as described in example 1 and fragment 1-47 of type A cholecystokinin receptor was studied with fluorescence spectroscopy. Although the compound of formula (IV), as it has no sulphate functions on the tyrosine residue, should have greater affinity for type B cholecystokinin receptor, the experiment performed and the results obtained are entirely legitimate, because the receptor fragment used contains no residues (Arg 197) which are known to be responsible for interaction with the sulphate group.
Fragment 1-47 of type A receptor, CCKA-R(1-47), and the compound of formula (IV), both synthesised by solid-phase peptide synthesis methods, were used. Reference should be made to example 1 for the synthesis of compound (IV); for the synthesis of the receptor fragment, see R. Ragone, 47-53, 56, 2001, Biopolymers).
The interaction between receptor fragment CCKA-R(1-47) and compound (IV) was observed by monitoring the tryptophan fluorescence. The emission spectra were recorded at room temperature using a Jasco FP-750 spectrofluorimeter at the excitation wavelength of 296 nm to excite the tryptophan selectively. Small aliquots of a concentrated solution of compound (IV) dissolved in phosphate buffer at pH 7.2 were added to a fixed volume of a solution of CCKA-R(1-47) dissolved in the same solvent, in the presence of a 10 mM solution of sodium dodecylsulphate micelles, used to mimic the cell membrane. […]
Increasing quantities of compound of formula (IV) were added from a concentrated master solution containing 10 mM SDS micelles.
As will be seen in FIG. 2, which exemplifies a typical saturation curve, the fluorescence signal is gradually quenched as a result of the binding. The experiments were performed at various receptor concentrations, and fluorescence quenching was always observed. […] To distinguish the modifications in fluorescence caused by the binding, the contributions to fluorescence of the receptor and peptide isolated were subtracted, and a small variation in fluorescence compared with the value measured was obtained.

Assay [2] has as its system type A cholecystokinin receptor. In words: Intracellular calcium response in myenteric neurones (confocal microscopy). Format: cell-based. The conditions noted are these: perfusion for 60 seconds. An excerpt:
Biological tests have been carried out to confirm the activity of the cyclic compound of formula (IV), using neurone cells which express type A cholecystokinin receptor. […] Both these compounds should show a lower level of activity than the corresponding analogs containing the sulphate group on the tyrosine residue. The biological activity tests involved the use of myenteric neurones as receptor-expressing cells, and the use of a confocal microscope with a suitable software package to measure peptide activity. The tests were based on the following assumptions: • 1) myenteric neurones (of the intestinal wall) normally express type A CCK receptor • 2) binding between CCK and the receptor induces excitation of the cell (change in membrane potential), which can be recorded with electrophysiology studies • 3) the cell excitation is coupled to the passage of calcium from the outside to the inside of the cell through specific membrane channels • 4) if the calcium is rendered fluorescent (using calcium chelators which modify the emission wavelength if they are excited at a particular wavelength), the increased concentration of the intracellular calcium in response to a stimulus can be recorded • 5) confocal laser microscopy with the aid of specific software therefore enables these phenomena to be recorded, and the fluorescence to be converted into the intracellular calcium concentration.
(A change in cytosolic calcium serves as a functional read-out for many receptors and channels.)

In the case of `CSCC[C@@H]1NC(=O)[C@H](Cc2c[nH]c3ccccc23)NC(=O)[C@@H](NC(=O)[C@H](CCSC)NC(=O)[C@H](Cc2ccc(O)cc2)NC(=O)[C@@H](N)CC(=O)O)CNC(=O)[C@H](CCCCN)NC(=O)[C@H](Cc2ccccc2)NC(=O)[C@H](CC(=O)O)NC1=O` [(IV)] (H-DYM[Dap]WMDFK; lactam 4-C), the pKd in assay [1] (experiments at various receptor concentrations, read-out: Kd range estimated by fitting procedures) is 6.70 to 7.30; in assay [1] (experiments at various receptor concentrations, standard deviation ±27 nM, read-out: Kd mean) it was 6.92; in assay [1] (receptor concentration 2.6 μM, 10 mM phosphate buffer pH 7.2, 10 mM SDS micelles, fluorescence at 335 nm, read-out: Kd (binding curve of FIG. 2)) it was 6.59.
In the case of “Asp-Tyr-Met-Gly-Trp-Met-Asp-Phe-amide [CCK8]”, the intracellular calcium concentration entry in assay [2] is on record as “induce an increase in the intracellular calcium concentration”.
